According to PMC6295285 (Pharmaceutical research, 2018):
Values belong to the compound of their own block, whether it stands above or below them.

Columns and labels:
human OCT2 = biological target: T1, human OCT2 (Homo sapiens, UniProt O15244); assay: Inhibition of metformin uptake in HEK-293 cells overexpressing hOCT2; conditions: for Effect on hOCT2 activity at low concentrations (hOCT2-enhancer): low but clinically relevant concentrations (less than 10 μM); for Selectivity category hOCT2 versus hMATEs: comparison of IC50 for hOCT2, hMATE1, hMATE2-K
T1 sequence (O15244 1-555): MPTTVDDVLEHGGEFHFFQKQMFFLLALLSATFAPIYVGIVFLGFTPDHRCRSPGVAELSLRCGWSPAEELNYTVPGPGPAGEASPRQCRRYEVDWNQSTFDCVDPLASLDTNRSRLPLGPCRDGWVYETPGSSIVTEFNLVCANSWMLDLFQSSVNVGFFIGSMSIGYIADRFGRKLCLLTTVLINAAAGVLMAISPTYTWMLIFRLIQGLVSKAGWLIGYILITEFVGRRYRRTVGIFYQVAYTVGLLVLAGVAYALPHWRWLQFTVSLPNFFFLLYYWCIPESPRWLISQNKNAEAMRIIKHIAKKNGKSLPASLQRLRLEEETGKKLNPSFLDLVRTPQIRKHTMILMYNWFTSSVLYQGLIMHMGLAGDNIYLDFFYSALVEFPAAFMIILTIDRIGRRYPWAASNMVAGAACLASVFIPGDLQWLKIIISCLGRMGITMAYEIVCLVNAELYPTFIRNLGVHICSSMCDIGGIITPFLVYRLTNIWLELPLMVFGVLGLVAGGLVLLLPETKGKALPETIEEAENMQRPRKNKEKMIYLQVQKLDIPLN

HEK-hOCT2 cells [1] = assay: Cisplatin accumulation in HEK-hOCT2 cells; assay type: cell-based, human; conditions: carvedilol 10 μM + cisplatin 100 μM 2 h, then 22 h normal medium
human MATE1 = biological target: T2, human MATE1 (Homo sapiens, UniProt Q96FL8); assay: Inhibition of metformin uptake in HEK-293 cells overexpressing hMATE1; assay type: cell-based; conditions: IC50 for inhibition of hMATE1, metformin 50 μM probe substrate, HEK293-hMATE1
T2 sequence (Q96FL8 1-570): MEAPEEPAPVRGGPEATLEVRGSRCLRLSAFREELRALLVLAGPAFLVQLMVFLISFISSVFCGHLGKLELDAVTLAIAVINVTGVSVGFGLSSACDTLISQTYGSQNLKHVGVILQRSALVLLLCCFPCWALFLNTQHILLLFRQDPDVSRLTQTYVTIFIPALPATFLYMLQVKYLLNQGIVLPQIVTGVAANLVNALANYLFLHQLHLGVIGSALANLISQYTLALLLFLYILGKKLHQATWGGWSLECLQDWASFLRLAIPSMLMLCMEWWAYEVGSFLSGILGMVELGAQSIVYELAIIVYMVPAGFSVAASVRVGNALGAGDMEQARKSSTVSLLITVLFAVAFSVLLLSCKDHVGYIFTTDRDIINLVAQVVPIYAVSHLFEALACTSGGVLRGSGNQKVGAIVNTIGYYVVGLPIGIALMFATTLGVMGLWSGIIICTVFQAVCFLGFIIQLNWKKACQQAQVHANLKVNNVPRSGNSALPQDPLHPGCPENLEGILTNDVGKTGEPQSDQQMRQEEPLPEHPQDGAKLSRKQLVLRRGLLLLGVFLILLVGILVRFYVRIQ

mouse Mate1 = biological target: T3, mouse Mate1 (Mus musculus, UniProt Q8K0H1); assay: Inhibition of metformin uptake in HEK-293 cells overexpressing mouse Mate1; assay type: cell-based
T3 sequence (Q8K0H1 1-567): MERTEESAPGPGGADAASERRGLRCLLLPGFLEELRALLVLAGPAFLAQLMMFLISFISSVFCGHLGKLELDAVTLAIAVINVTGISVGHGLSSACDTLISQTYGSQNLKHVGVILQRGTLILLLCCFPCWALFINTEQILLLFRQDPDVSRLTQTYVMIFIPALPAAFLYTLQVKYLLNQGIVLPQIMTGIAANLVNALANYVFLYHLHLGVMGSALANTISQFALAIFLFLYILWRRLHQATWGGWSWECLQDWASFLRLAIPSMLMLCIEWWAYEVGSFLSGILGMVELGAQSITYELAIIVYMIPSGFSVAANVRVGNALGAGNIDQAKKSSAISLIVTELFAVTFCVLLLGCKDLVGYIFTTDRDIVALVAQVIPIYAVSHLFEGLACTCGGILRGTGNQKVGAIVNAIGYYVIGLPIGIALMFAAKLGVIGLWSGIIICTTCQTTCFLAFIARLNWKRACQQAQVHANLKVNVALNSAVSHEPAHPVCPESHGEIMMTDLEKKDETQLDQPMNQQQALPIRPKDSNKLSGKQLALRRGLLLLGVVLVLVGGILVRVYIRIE

human OCT1 = biological target: T4, human OCT1 (Homo sapiens, UniProt O15245); assay: Inhibition of metformin uptake in HEK-293 cells overexpressing hOCT1; assay type: cell-based
T4 sequence (O15245 1-554): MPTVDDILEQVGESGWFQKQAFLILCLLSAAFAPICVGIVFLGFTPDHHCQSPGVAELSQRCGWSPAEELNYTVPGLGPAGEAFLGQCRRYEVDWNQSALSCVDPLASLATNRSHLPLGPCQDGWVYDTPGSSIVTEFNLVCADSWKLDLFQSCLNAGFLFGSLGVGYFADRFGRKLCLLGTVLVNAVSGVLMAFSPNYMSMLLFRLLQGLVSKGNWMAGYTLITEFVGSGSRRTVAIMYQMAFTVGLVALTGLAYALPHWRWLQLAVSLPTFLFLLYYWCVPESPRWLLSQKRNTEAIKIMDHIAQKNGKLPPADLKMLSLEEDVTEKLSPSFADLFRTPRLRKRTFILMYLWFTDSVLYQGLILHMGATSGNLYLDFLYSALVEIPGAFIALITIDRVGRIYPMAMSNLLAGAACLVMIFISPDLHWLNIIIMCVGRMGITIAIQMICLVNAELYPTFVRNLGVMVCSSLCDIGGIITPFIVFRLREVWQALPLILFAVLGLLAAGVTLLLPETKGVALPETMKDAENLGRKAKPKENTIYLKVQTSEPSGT

HEK-hOCT2 cells [2] = assay: Cisplatin cytotoxicity, cell viability by CCK-8; assay type: cell-based, human; conditions: carvedilol 10 μM + cisplatin 100 μM 2 h, then 22 h
[3] = Metformin pharmacokinetics in mice with carvedilol; assay type: in vivo, mouse; conditions: carvedilol 2 mg/kg; at 30, 45 and 60 min
C57BL/6J mice = assay: Cisplatin-induced nephrotoxicity in mice; assay type: in vivo, mouse; conditions: 72 h
[4] = cited from earlier work
mouse Oct2 = biological target: T5, mouse Oct2 (Mus musculus, UniProt O70577); assay: Inhibition of metformin uptake in HEK-293 cells overexpressing mouse Oct2; assay type: cell-based
T5 sequence (O70577 1-553): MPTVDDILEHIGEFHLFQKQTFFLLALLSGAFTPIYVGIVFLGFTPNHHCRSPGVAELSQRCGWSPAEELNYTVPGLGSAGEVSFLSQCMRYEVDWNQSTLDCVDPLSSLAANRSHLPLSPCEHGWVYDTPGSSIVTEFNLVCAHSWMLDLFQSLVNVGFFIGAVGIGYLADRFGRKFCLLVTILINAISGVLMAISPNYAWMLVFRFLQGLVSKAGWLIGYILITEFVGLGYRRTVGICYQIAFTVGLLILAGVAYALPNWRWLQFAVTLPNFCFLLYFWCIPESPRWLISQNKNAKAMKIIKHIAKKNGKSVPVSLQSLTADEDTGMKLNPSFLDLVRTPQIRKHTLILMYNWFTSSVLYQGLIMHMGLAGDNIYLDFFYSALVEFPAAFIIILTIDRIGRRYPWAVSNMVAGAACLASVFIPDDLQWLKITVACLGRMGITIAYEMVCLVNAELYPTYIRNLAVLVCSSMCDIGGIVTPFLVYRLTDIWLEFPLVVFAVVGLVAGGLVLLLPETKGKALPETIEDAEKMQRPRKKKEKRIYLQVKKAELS

HEK-control cells = assay: Cisplatin accumulation in HEK-control cells; assay type: cell-based, human; conditions: carvedilol 10 μM + cisplatin 100 μM 2 h, then 22 h normal medium
mouse Oct1 = biological target: T6, mouse Oct1 (Mus musculus, UniProt O08966); assay: Inhibition of metformin uptake in HEK-293 cells overexpressing mouse Oct1; assay type: cell-based
T6 sequence (O08966 1-556): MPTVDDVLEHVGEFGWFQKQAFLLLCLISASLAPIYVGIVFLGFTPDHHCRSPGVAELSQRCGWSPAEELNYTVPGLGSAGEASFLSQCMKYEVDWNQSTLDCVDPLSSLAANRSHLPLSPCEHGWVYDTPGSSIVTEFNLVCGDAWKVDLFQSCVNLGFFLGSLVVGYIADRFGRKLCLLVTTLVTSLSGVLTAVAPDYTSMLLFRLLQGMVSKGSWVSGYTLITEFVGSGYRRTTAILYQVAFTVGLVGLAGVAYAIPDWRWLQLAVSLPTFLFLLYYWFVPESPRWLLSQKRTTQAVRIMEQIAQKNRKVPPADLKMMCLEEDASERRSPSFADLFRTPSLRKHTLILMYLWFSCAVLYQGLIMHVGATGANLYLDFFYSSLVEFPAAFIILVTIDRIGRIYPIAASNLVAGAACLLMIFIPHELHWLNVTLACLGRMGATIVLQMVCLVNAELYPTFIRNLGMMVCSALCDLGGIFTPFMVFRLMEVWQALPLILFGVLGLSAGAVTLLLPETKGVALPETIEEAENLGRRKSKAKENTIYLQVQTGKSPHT

[5] = carvedilol 2 mg/kg x2 + cisplatin 10 mg/kg

Effect on hOCT2 activity at low concentrations (hOCT2-enhancer) (human OCT2): increase hOCT2 activity
Compound: CCC(C)n1ncn(-c2ccc(N3CCN(c4ccc(OCC5COC(Cn6cncn6)(c6ccc(Cl)cc6Cl)O5)cc4)CC3)cc2)c1=O (stereo not shown) [Itraconazole]
Effect on hOCT2-mediated metformin uptake at high concentrations (human OCT2): could inhibit hOCT2-mediated metformin uptake

Effect on hOCT2 activity at low concentrations (hOCT2-enhancer) (human OCT2): increase hOCT2 activity
Compound: CC(C)(C)NC(=O)[C@@H]1C[C@@H]2CCCC[C@@H]2CN1C[C@@H](O)[C@H](Cc1ccccc1)NC(=O)[C@H](CC(N)=O)NC(=O)c1ccc2ccccc2n1 [Saquinavir]
Effect on hOCT2-mediated metformin uptake at high concentrations (human OCT2): could inhibit hOCT2-mediated metformin uptake

Selectivity category hOCT2 versus hMATEs (human OCT2): selective hOCT2 inhibitors
Compound: CCCCOc1ccc(CC(=O)NO)cc1 [Bufexamac]

Effect on hOCT2 activity at low concentrations (hOCT2-enhancer) (human OCT2): increase hOCT2 activity
Compound: C(=C\c1ccccc1)/CN1CCN(C(c2ccccc2)c2ccccc2)CC1 [Cimnasizine]
Effect on hOCT2-mediated metformin uptake at high concentrations (human OCT2): could inhibit hOCT2-mediated metformin uptake

Compound: COc1ccccc1OCCNCC(O)COc1cccc2[nH]c3ccccc3c12 (stereo not shown) [Carvedilol]
Accumulation of cisplatin in HEK-hOCT2 stable cells (HEK-hOCT2 cells [1]): 3.77 ± 0.02 ppm/mg protein | IC50 (human MATE1): 103 µM | IC50 (mouse Mate1): 67 µM | IC50 (human OCT1): 6.4 µM | Cell viability of cisplatin-treated HEK-hOCT2 cells with co-treatment (HEK-hOCT2 cells [2]): significantly rescued | Plasma concentrations of metformin compared to vehicle [3]: significantly increased | Kidney histology (renal damage), co-administration (C57BL/6J mice; [5]): substantially ameliorated | Kim-1 gene transcripts in kidney, co-administration (C57BL/6J mice; [5]): almost be brought down to the normal base | Kidney histology, treatment-only group (C57BL/6J mice; carvedilol only): No visible morphological change | Time to peak plasma concentration ([4]; after oral administration): 1—2 h | Oral bioavailability ([4]; human, oral): 24% | Plasma binding ([4]; mostly bound to albumin): approximately 95% | Terminal half-life ([4]; oral administration): 6—10 h | IC50 (mouse Oct2): 23.1 µM | Selectivity category hOCT2 versus hMATEs (human OCT2): selective hOCT2 inhibitors | Accumulation of cisplatin in control cells (HEK-control cells): 3.87 ± 0.06 ppm/mg protein | IC50 (mouse Oct1): 2.8 µM

Selectivity category hOCT2 versus hMATEs (human OCT2): selective hOCT2 inhibitors
Compound: CC(C)C(=O)Nc1ccc([N+](=O)[O-])c(C(F)(F)F)c1 [Flutamide]
